Read-outs that look alike come from different tables or passages of the source.
Assays:
[1] = test system: Enterovirus EV-71 (BrCr strain); experiment: Anti-enterovirus activity, EV-71 virus yield reduction (qRT-PCR) in RD cells; format: cell-based; conditions: for EC50 / EC90: 0.1 MOI, 2 days post-treatment; for EC50: read-out: EC50 against Enterovirus EV-71 (BrCr strain); for EC90: read-out: EC90 against Enterovirus EV-71 (BrCr strain); for IC50: given as IC50, read-out: IC50 against Enterovirus EV-71 (BrCr strain); for IC90: given as IC90, read-out: IC90 against Enterovirus EV-71 (BrCr strain)
Experimental: Compounds are tested for cytotoxicity using a MTS (3-(4,5-dimethylthiazol-2-yl)-5-(3-carboxymethoxyphenyl)-2-(4-sulfophenyl)-2H-tetrazolium) method and the CC50 (IC50) values (cytotoxic concentrations of drug required to reduce cell viability by 50%) are determined for each test compound in human rhabdomyosarcoma (RD) cell line. In addition, the maximum non-toxic concentrations (MNTC) are also determined for each compound. To avoid potential drug toxicity that would interfere with viral cytopathic effect (CPE), compounds are evaluated at nontoxic concentrations. The resultant inhibitory effect of each test compound is calculated as a percentage of decrease in EV-71 CPE. Briefly, a monolayer of RD cells is prepared in a 96-well plates. The cells are then infected with 1 MOI of EV-71 (BrCr strain) followed by treatment with a single non-toxic dose of each compound in triplicate. The vehicle control wells are treated with 0.1% DMSO diluted in the working media. The plate is then incubated for 48 h at which time the virus-control wells produced detectable CPE. To determine the probable CPE inhibitory effect of test compounds, an MTS assay is performed and effective compounds are chosen for further studies to identify the potency of the compounds and their concentration-dependent manner. The dose-response antiviral activity of each compound is determined by a virus yield reduction assay method. Briefly, confluent monolayers of RD cells in 96-wells microplate are infected with 0.1 MOI of EV-71 followed by treatment with compounds. Effective compounds are further quantified and confirmed with a virus-yield-reduction assay using an optimized in house qRT-PCR to determine the EV-71 RNA copy number after 2 days post-treatment from collected supernatants. qRT-PCR is performed using the EV-71 specific probe/primer mix and qScript-Tough master mix (Quantibio, USA). Quantitative PCR measurement was performed using StepOnePlus real time PCR system ([…]) according to manufacturer's protocol. The median effective concentration (EC50) and the concentration with 90% of inhibitory effect (EC90) are calculated using GraphPad PRISM for Windows, version 5 (GraphPad Software Inc., San Diego, CA, 2005) as the means±standard deviation (SD) of the mean from triplicate assay from three independent experiments.

[2] = Cytotoxicity (MTS) in RD cells; format: cell-based, human; conditions: human, RD (rhabdomyosarcoma) cells
Experimental: Compounds are tested for cytotoxicity using a MTS (3-(4,5-dimethylthiazol-2-yl)-5-(3-carboxymethoxyphenyl)-2-(4-sulfophenyl)-2H-tetrazolium) method and the CC50 (IC50) values (cytotoxic concentrations of drug required to reduce cell viability by 50%) are determined for each test compound in human rhabdomyosarcoma (RD) cell line. In addition, the maximum non-toxic concentrations (MNTC) are also determined for each compound. To avoid potential drug toxicity that would interfere with viral cytopathic effect (CPE), compounds are evaluated at nontoxic concentrations. The resultant inhibitory effect of each test compound is calculated as a percentage of decrease in EV-71 CPE. Briefly, a monolayer of RD cells is prepared in a 96-well plates. The cells are then infected with 1 MOI of EV-71 (BrCr strain) followed by treatment with a single non-toxic dose of each compound in triplicate. The vehicle control wells are treated with 0.1% DMSO diluted in the working media. […] The dose-response antiviral activity of each compound is determined by a virus yield reduction assay method. Briefly, confluent monolayers of RD cells in 96-wells microplate are infected with 0.1 MOI of EV-71 followed by treatment with compounds. […] Quantitative PCR measurement was performed using StepOnePlus real time PCR system ([…]) according to manufacturer's protocol.

SARS-CoV-2 = experiment: microbe, parasite or virus in culture; format: cell-based; conditions: for inhibition at 10 µM: read-out: SARS-CoV-2 Inhibition at 10 μM (%)
HCoV (OC43) = experiment: In vitro assay for HCoV (OC43), virus yield reduction in Huh7 cells; format: cell-based; conditions: Betacoronavirus 1, OC43, Huh-7, 10 μM
Text: In order to determine the potential effect of each selected compound against in vitro replication of SARS-CoV-2 in Vero cells or HCoV (OC43) in Huh7 cells, a confluent cell monolayer in a 96-wells cell culture microplate can be infected at a multiplicity of infection (MOI) of 0.1 and treated with a maximum non-toxic concentration (MNTC) of each compound. To assess the antiviral activity, a virus yield reduction assay using specific qRT-PCR for each virus can be performed.
Dose-Dependent Antiviral Assay. The antiviral effect of each compound selected through the antiviral evaluation assay can be further confirmed by virus yield reduction assay using the optimized qRT-PCR by measuring the RNA copy number for each virus in the supernatant of treated-infected cells. A positive control, such as remdesivir, can be used for each assay.
Statistical analysis. The half-maximal effective concentration (EC50) and the concentration with 90% of inhibitory effect (EC90) can be calculated using GraphPad PRISM for Windows, version 5 (GraphPad Software Inc., San Diego, CA, 2005) or the Chou and Talalay Method.
These methods were used to evaluate certain of the compounds described herein.

[3] = Severe acute respiratory syndrome coronavirus 2, Vero

Structure (SMILES) | EC50 ([1]; RD, 48 h) [nM] | EC90 ([1]; RD, 48 h) [nM] | CC50 [2] [nM] | further results
CC(C)C[C@H](NC(=O)[C@H](Cc1ccc(F)cc1)NC(=O)c1cnccn1)C(=O)N[C@H](C=O)C[C@@H]1CCCNC1=O | 280 | 570 | > 100000 | –
CC(C)C[C@H](NC(=O)[C@H](Cc1ccc(O)cc1)NC(=O)OCc1ccccc1)C(=O)N[C@H](C=O)C[C@@H]1CCCNC1=O | 190 | 360 | > 100000 | –
COC(=O)C1O[C@@H]1[C@H](C[C@@H]1CCNC1=O)NC(=O)[C@H](CC(C)C)NC(=O)[C@H](Cc1cccc2ccccc12)NC(=O)OCc1ccccc1 (some centres unmarked) | 190 | 360 | 80200 | –
Cc1cc(C(=O)N[C@@H](CC(C)C)C(=O)N[C@H](C=O)C[C@@H]2CCCNC2=O)no1 | 1100 | 4000 | > 100000 | –
CC(C)C[C@H](NC(=O)[C@H](Cc1ccc(F)cc1)NC(=O)OCc1ccccc1)C(=O)N[C@H](C=O)C[C@@H]1CCCNC1=O [drawing 135] | – | – | > 100000 | IC50 [1]: 10.3 nM; IC90 [1]: 29.1 nM
CC(C)C[C@H](NC(=O)[C@H](Cc1cccc2ccccc12)NC(=O)OCc1ccccc1)C(=O)N[C@@H](C[C@@H]1CCCNC1=O)[C@@H](O)C#N [Compound 128, Benzyl ((S)-1-(((S)-1-(((1R,2S)-1-cyano-1-hydroxy-3-((S)-2-oxopiperidin-3-yl)propan-2-yl)amino)-4-methyl-1-oxopentan-2-yl)amino)-3-(naphthalen-1-yl)-1-oxopropan-2-yl)carbamate] | – | – | – | inhibition at 10 µM (SARS-CoV-2; [3]): 99.9%; inhibition at 10 µM (HCoV (OC43)): 100%
CC(C)C[C@H](NC(=O)[C@H](Cc1ccc(F)cc1)NC(=O)c1cnccn1)C(=O)N[C@H](C=O)C[C@@H]1CCNC1=O | – | – | > 100000 | IC50 [1]: 90 nM; IC90 [1]: 570 nM
CC(C)C[C@H](NC(=O)[C@H](Cc1cccc2ccccc12)NC(=O)OCc1ccccc1)C(=O)N[C@@H](C[C@@H]1CCCNC1=O)C(=O)C(F)(F)F [Compound 39, Benzyl ((S)-1-(((S)-4-methyl-1-oxo-1-(((S)-4,4,4-trifluoro-3-oxo-1-((S)-2-oxopiperidin-3-yl)butan-2-yl)amino)pentan-2-yl)amino)-3-(naphthalen-1-yl)-1-oxopropan-2-yl)carbamate] | – | – | – | inhibition at 10 µM (SARS-CoV-2; Severe acute respiratory syndrome coronavirus 2, 10 μM, Vero cells): 68%; inhibition at 10 µM (HCoV (OC43)): 99.4%
CC(C)C[C@H](NC(=O)[C@H](Cc1cccc2ccccc12)NC(=O)OCc1ccccc1)C(=O)N[C@@H](C[C@@H]1CCCNC1=O)C(O)C(F)(F)F (some centres unmarked) [drawing 125] | 310 | 580 | 25000 | –
CC(C)C[C@H](NC(=O)[C@H](Cc1cccc2ccccc12)NC(=O)OCc1ccccc1)C(=O)N[C@@H](C[C@@H]1CCCNC1=O)C(O)S(=O)(=O)O (some centres unmarked) [drawing 134] | – | – | 95000 | IC50 [1]: 11.8 nM; IC90 [1]: 30 nM
CC(C)C[C@H](NC(=O)[C@H](Cc1ccc(O)cc1)NC(=O)OCc1ccccc1)C(=O)N[C@H](C=O)CC1CCNC1=O (some centres unmarked) | 2300 | 4800 | – | CC50 ([2]; unit inferred): > 100000 nM
CC(C)C[C@H](NC(=O)[C@H](Cc1cccc2ccccc12)NC(=O)OCCc1ccccc1)C(=O)N[C@H](C=O)C[C@@H]1CCNC1=O | 750 | 2110 | 42500 | –
CC(C)C[C@H](NC(=O)[C@H](Cc1cccc2ccccc12)NC(=O)OCc1ccccc1)C(=O)N[C@H](C=O)C[C@@H]1CCNC1=O | 90 | 260 | > 100000 | –
Cc1cc(C(=O)NC(CC(C)C)C(=O)N[C@H](C=O)C[C@@H]2CCCNC2=O)no1 (some centres unmarked) [Compound 43] | – | – | – | inhibition at 10 µM (SARS-CoV-2; [3]): 99.9%; inhibition at 10 µM (HCoV (OC43)): 99.9%
CC(C)C[C@H](NC(=O)[C@H](Cc1ccc(F)cc1)NC(=O)OCc1ccccc1)C(=O)N[C@H](C=O)C[C@@H]1CCNC1=O | 30 | 60 | > 100000 | –
Cc1cc(C(=O)N[C@@H](Cc2cccc3ccccc23)C(=O)N[C@@H](CC(C)C)C(=O)NC(C=O)C[C@@H]2CCCNC2=O)no1 (single isomer, unassigned) | – | – | > 100000 | EC50 [1]: 1.7 nM; EC90 [1]: 7.5 nM
CC(C)C[C@H](NC(=O)OCc1ccccc1)C(=O)NC(C=O)C[C@@H]1CCCNC1=O (some centres unmarked) | 50 | 130 | > 100000 | –
Cc1cc(C(=O)N[C@@H](Cc2cccc3ccccc23)C(=O)N[C@@H](CC(C)C)C(=O)N[C@H](C=O)C[C@@H]2CCCNC2=O)no1 [Compound 91, 5-Methyl-N—((S)-1-(((S)-4-methyl-1-oxo-1-(((S)-1-oxo-3-((S)-2-oxopiperidin-3-yl)propan-2-yl)amino)pentan-2-yl)amino)-3-(naphthalen-1-yl)-1-oxopropan-2-yl)isoxazole-3-carboxamide] | – | – | – | EC50 (SARS-CoV-2; Severe acute respiratory syndrome coronavirus 2, Vero cells, unit inferred, read-out: Activity against SARS-CoV-2 EC50): 600 nM; EC90 (SARS-CoV-2; Severe acute respiratory syndrome coronavirus 2, Vero cells, unit inferred, read-out: Activity against SARS-CoV-2 EC90): 2300 nM
CC(C)C[C@H](NC(=O)[C@H](Cc1cccc2ccccc12)NC(=O)c1cnccn1)C(=O)N[C@H](C=O)C[C@@H]1CCCNC1=O | 15.8 | 47.5 | > 100000 | –
CC(C)C[C@H](NC(=O)[C@@H](Cc1cccc2ccccc12)NC(=O)OCc1ccccc1)C(=O)N[C@H](C=O)C[C@@H]1CCCNC1=O | – | – | 32500 | IC50 [1]: 8.8 nM; IC90 [1]: 30 nM
CC(C)C[C@H](NC(=O)[C@H](Cc1cccc2ccccc12)NC(=O)OCc1ccccc1)C(=O)N[C@@H](C[C@@H]1CCCNC1=O)C(=O)C(F)(F)F [drawing 122] | 320 | 580 | 65000 | –
CC(C)C[C@H](NC(=O)[C@H](Cc1cccc2ccccc12)NC(=O)OCc1ccccc1)C(=O)N[C@@H](CC1CCNC1=O)[C@H]1O[C@@H]1S(C)(=O)=O (some centres unmarked) | 1440 | 5020 | > 100000 | –
Cc1cc(C(=O)N[C@@H](Cc2ccc(F)cc2)C(=O)N[C@@H](CC(C)C)C(=O)N[C@H](C=O)C[C@@H]2CCCNC2=O)no1 | 9.4 | 16.6 | > 100000 | –
CC(C)C[C@H](NC(=O)[C@H](Cc1cccc2ccccc12)NC(=O)c1cnccn1)C(=O)N[C@H](C=O)C[C@@H]1CCNC1=O | – | – | > 100000 | IC50 [1]: 17.2 nM; IC90 [1]: 64 nM

From US12268723B2, “Peptidomimetics for the treatment of coronavirus and picorna virus infections” (priority 2019, dated 2025)
